Read-outs that look alike come from different tables or passages of the source.
Experiments:
[1] = system: Pancreatin; test: Pancreatin stability; assay type: in vitro ADME, porcine; conditions: 5 µM
Protocol: Pancreatin Stability: Stability studies were conducted by incubating prodrug (5 µM) with 1 % (w/v) pancreatin (Sigma, P-1625, from porcine pancreas) in 0.025 M Tris buffer containing 0.5 M NaCl (pH 7.5) at 37 °C for 60 min. The reaction was stopped by addition of 2 volumes of methanol. After centrifugation at 14,000 rpm for 10 min, the supernatant was removed and analyzed by LC/MS/MS.

[2] = aqueous buffer
Protocol: (§1) The stabilities of prodrugs were evaluated in one or more in vitro systems using a variety of tissue preparations following methods known in the art. The chemical stability of prodrugs in aqueous buffers at pH's of 2.0, 7.4 and 8.0 were also measured. […] Each preparation was incubated with test compound at 37°C for one hour. Aliquots (50 µL) were removed at 0, 30, and 60 min and quenched with 0.1 % trifluoroacetic acid in acetonitrile.

[3] = rat, plasma, 2 µM
Protocol: as §1

[4] = human, plasma, 2 µM
Protocol: as §1

[5] = rat, 2 µM
Protocol: as §1

[6] = human, 2 µM
Protocol: as §1

[7] = human, s9, 1 h, 5 µM
Protocol: For stability studies, prodrug (5 µM) was incubated in Caco-2 homogenate S9 fraction (0.5 mg protein per mL) for 60 min at 37°C. Concentrations of intact prodrug and released baclofen were determined at zero time and 60 minutes using LC/MS/MS.

[8] = system: Caco-2 cells; conditions: human, Caco-2, 200 uM
Protocol: For example, cellular permeability may be evaluated by examining the flux of a prodrug across a cultured polarized cell monolayer (e.g., Caco-2 cells). Caco-2 cells obtained from continuous culture (passage less than 28) were seeded at high density onto Transwell polycarbonate filters. Cells were maintained with DMEM / 10% fetal calf serum + 0.1 mM nonessential amino acids + 2 mM L-Gln, 5% CO2/ / 95% O2, 37°C until the day of the experiment. Permeability studies were conducted at pH 6.5 apically (in 50 mM MES buffer containing 1 mM CaCl2, 1mM MgCl2, 150 mM NaCl, 3 mM KCl, 1 mM NaH2PO4, 5 mM glucose) and pH 7.4 basolaterally (in Hanks' balanced salt solution containing 10 mM HEPES) in the presence of efflux pump inhibitors (250 µM MK-571, 250 µM Verapamil, 1 mM Ofloxacin). Inserts were placed in 12 or 24 well plates containing buffer and incubated for 30 min at 37C°. Prodrug (200 µM) was added to the apical or basolateral compartment (donor) and concentrations of prodrug and/or released parent drug in the opposite compartment (receiver) were determined at intervals over 1 hour using LC/MS/MS. Values of apparent permeability (Papp) were calculated using the equation: Papp = Vr (dC/dt)//(ACo) [formula]
Here Vr is the volume of the receiver compartment in mL; dC/dt is the total flux ofprodrug and parent drug (µM/s), determined from the slope of the plot of concentration in the receiver compartment versus time; Co is the initial concentration of prodrug in µM; A is the surface area of the membrane in cm^2.

[9] = 1 % (w/v) pancreatin, pH 7.5, 37 °C, after 60 min

CC(=O)OCOC(=O)NC[C@H](CC(=O)[O-])c1ccc(Cl)cc1.[Na+] [(10), Sodium 4-[(Acetoxymethoxy)carbonylamino]-(3R)-(4-chlorophenyl)-butanoate]
% of Baclofen Released [1, 9]: 21%
% of Prodrug Remaining [1, 9]: 75%
% of Baclofen Released ([2]; 1 h, pH 2): 1%
% of Prodrug Remaining ([2]; 1 h, pH 2): 100%
% of Baclofen Released ([2]; 1 h, pH 7.4): 3%
% of Prodrug Remaining ([2]; 1 h, pH 7.4): 101%
% of Baclofen Released ([2]; 1 h, pH 8): 9%
% of Prodrug Remaining ([2]; 1 h, pH 8): 98%
% of Baclofen Released ([3]; 1 h): 15%
% of Prodrug Remaining ([3]; 1 h): 85%
% of Baclofen Released ([4]; 1 h): 26%
% of Prodrug Remaining ([4]; 1 h): 64%
% of Baclofen Released ([5]; s9, 1 h): 78%
% of Prodrug Remaining ([5]; s9, 1 h): 0%
% of Baclofen Released ([6]; s9, 1 h): 80%
% of Prodrug Remaining ([6]; s9, 1 h): 1%
% of Baclofen Released [7]: 96%
% of Prodrug Remaining [7]: 2%
Ratio A-BB-A [8]: 1.2

O=C([O-])C[C@@H](CNC(=O)OCOC(=O)c1ccccc1)c1ccc(Cl)cc1.[Na+] [(12), Sodium 4-[(Benzoyloxymethoxy)carbonylamino]-(3R)-(4-chlorophenyl)-butanoate]
% of Baclofen Released [1, 9]: 77%
% of Prodrug Remaining [1, 9]: 15%
% of Baclofen Released ([2]; 1 h, pH 2): 0%
% of Prodrug Remaining ([2]; 1 h, pH 2): 100%
% of Baclofen Released ([2]; 1 h, pH 7.4): 0%
% of Prodrug Remaining ([2]; 1 h, pH 7.4): 100%
% of Baclofen Released ([2]; 1 h, pH 8): 0%
% of Prodrug Remaining ([2]; 1 h, pH 8): 105%
% of Baclofen Released ([3]; 1 h): 14%
% of Prodrug Remaining ([3]; 1 h): 72%
% of Baclofen Released ([4]; 1 h): 5%
% of Prodrug Remaining ([4]; 1 h): 95%
% of Baclofen Released ([5]; s9, 1 h): 100%
% of Prodrug Remaining ([5]; s9, 1 h): 3%
% of Baclofen Released ([6]; s9, 1 h): 100%
% of Prodrug Remaining ([6]; s9, 1 h): 1%
% of Baclofen Released [7]: 100%
% of Prodrug Remaining [7]: 2%
Ratio A-BB-A [8]: 5.9

CC(C)(C)C(=O)OCOC(=O)NC[C@H](CC(=O)[O-])c1ccc(Cl)cc1.[Na+] [(20), Sodium 4-[(Pivaloyloxymethoxy)carbonylamino]-(3R)-(4-chlorophenyl)-butanoate]
% of Baclofen Released [1, 9]: 36%
% of Prodrug Remaining [1, 9]: 58%
% of Baclofen Released ([2]; 1 h, pH 2): 0%
% of Prodrug Remaining ([2]; 1 h, pH 2): 100%
% of Baclofen Released ([2]; 1 h, pH 7.4): 0%
% of Prodrug Remaining ([2]; 1 h, pH 7.4): 100%
% of Baclofen Released ([2]; 1 h, pH 8): 0%
% of Prodrug Remaining ([2]; 1 h, pH 8): 103%
% of Baclofen Released ([3]; 1 h): 8%
% of Prodrug Remaining ([3]; 1 h): 92%
% of Baclofen Released ([4]; 1 h): 9%
% of Prodrug Remaining ([4]; 1 h): 82%
% of Baclofen Released ([5]; s9, 1 h): 75%
% of Prodrug Remaining ([5]; s9, 1 h): 25%
% of Baclofen Released ([6]; s9, 1 h): 100%
% of Prodrug Remaining ([6]; s9, 1 h): 1%
% of Baclofen Released [7]: 100%
% of Prodrug Remaining [7]: 1%
Ratio A-BB-A [8]: 11.8

CCCC(=O)OC(C)OC(=O)NC[C@H](CC(=O)[O-])c1ccc(Cl)cc1.[Na+] (stereo partly drawn) [(32), Sodium 4-[(1-Butanoyloxyethoxy)carbonylamino]-(3R)-(4-chlorophenyl)-butanoate]
Ratio A-BB-A [8]: 7.6

CC(OC(=O)NC[C@H](CC(=O)[O-])c1ccc(Cl)cc1)OC(=O)C(C)(C)C.[Na+] (stereo partly drawn) [(36), Sodium 4-[(1-Pivaloyrloxyethoxy)carbonylamino]-(3R)-(4-chlorophenyl)-butanoate]
Ratio A-BB-A [8]: 1.5

CCC(=O)OC(OC(=O)NC[C@H](CC(=O)[O-])c1ccc(Cl)cc1)C(C)C.[Na+] (stereo partly drawn) [(48), Sodium 4-[(1-Propanoyloxyisobutoxy)carbonylamino]-(3R)-(4-chlorophenyl)-butanoate]
Ratio A-BB-A [8]: 6.5

CCOC(C)(OCC)C(=O)OCOC(=O)NC[C@H](CC(=O)[O-])c1ccc(Cl)cc1.[Na+] [(51), Sodium 4-[(2,2-Diethoxypropanoyloxymethoxy)carbonylamino]-(3R)-(4-chlorophenyl)-butanoate]
% of Baclofen Released [1, 9]: 50%
% of Prodrug Remaining [1, 9]: 44%
% of Baclofen Released ([2]; 1 h, pH 2): 0%
% of Prodrug Remaining ([2]; 1 h, pH 2): 100%
% of Baclofen Released ([2]; 1 h, pH 7.4): 2%
% of Prodrug Remaining ([2]; 1 h, pH 7.4): 97%
% of Baclofen Released ([2]; 1 h, pH 8): 9%
% of Prodrug Remaining ([2]; 1 h, pH 8): 91%
% of Baclofen Released ([3]; 1 h): 72%
% of Prodrug Remaining ([3]; 1 h): 31%
% of Baclofen Released ([4]; 1 h): 50%
% of Prodrug Remaining ([4]; 1 h): 53%
% of Baclofen Released ([5]; s9, 1 h): 103%
% of Prodrug Remaining ([5]; s9, 1 h): 2%
% of Baclofen Released ([6]; s9, 1 h): 91%
% of Prodrug Remaining ([6]; s9, 1 h): 6%
% of Baclofen Released [7]: 100%
% of Prodrug Remaining [7]: 3%
Ratio A-BB-A [8]: 3.0

COc1ccc(C(=O)OCOC(=O)NC[C@H](CC(=O)[O-])c2ccc(Cl)cc2)cc1.[Na+] [(53), Sodium 4-[(4-Methoxybenzoyloxymethoxy)carbonylamino]-(3R)-(4-chlorophenyl)-butan oate]
Ratio A-BB-A [8]: 2.4

CCCC(OC(=O)NC[C@H](CC(=O)[O-])c1ccc(Cl)cc1)OC(=O)c1ccccc1.[Na+] (stereo partly drawn) [(71), Sodium 4-[(1-Benzoyloxybutoxy)carbonylamino]-(3R)-(4-chlorophenyl)-butanoate]
Ratio A-BB-A [8]: 7.1

CCCC(OC(=O)NC[C@H](CC(=O)[O-])c1ccc(Cl)cc1)OC(=O)C(C)C.[Na+] (stereo partly drawn) [(72), Sodium 4-[(1-Isobutanoyloxybutoxy)carbonylamino]-(3R)-(4-chlorophenyl)-butanoate]
Ratio A-BB-A [8]: 3.5

CCCC(=O)OC(CCC)OC(=O)NC[C@H](CC(=O)[O-])c1ccc(Cl)cc1.[Na+] (stereo partly drawn) [(73), Sodium 4-[(1-Butanoyloxybutoxy)carbonylamino]-(3R)-(4-chlorophenyl)-butanoate]
Ratio A-BB-A [8]: 3.2

CCCC(OC(C)=O)OC(=O)NC[C@H](CC(=O)[O-])c1ccc(Cl)cc1.[Na+] (stereo partly drawn) [(74), Sodium 4-[(1-Acetoxybutoxy)carbonylamino]-(3R)-(4-chlorophenyl)-butanoate]
Ratio A-BB-A [8]: 11.2

CCCC(=O)OC(CC)OC(=O)NC[C@H](CC(=O)[O-])c1ccc(Cl)cc1.[Na+] (stereo partly drawn) [(78), Sodium 4-[(1-Butanoyloxypropoxy)carbonylamino]-(3R)-(4-chlorophenyl)-butanoate]
Ratio A-BB-A [8]: 7.9

Sodium 4-[(1-Benzoyloxgyethoxy)carbonylaminol-(3R)-(4-chlorophenyl)-butanoate [(40)]
% of Baclofen Released ([1]; pig, pancreatin, 1 h, pH 7.5): 43/58%
% of Prodrug Remaining ([1]; pig, pancreatin, 1 h, pH 7.5): 43/58%
% of Baclofen Released ([2]; pH 2, 60 min): 103/0%
% of Prodrug Remaining ([2]; pH 2, 60 min): 103/0%
% of Baclofen Released ([2]; pH 7.4, 60 min): 100/0%
% of Prodrug Remaining ([2]; pH 7.4, 60 min): 100/0%
% of Baclofen Released ([2]; pH 8, 60 min): 107/2%
% of Prodrug Remaining ([2]; pH 8, 60 min): 107/2%
% of Baclofen Released ([3]; 60 min): 72/17%
% of Prodrug Remaining ([3]; 60 min): 72/17%
% of Baclofen Released ([4]; 60 min): 101/2%
% of Prodrug Remaining ([4]; 60 min): 101/2%
% of Baclofen Released ([5]; s9, 60 min): 8/96%
% of Prodrug Remaining ([5]; s9, 60 min): 8/96%
% of Baclofen Released ([6]; s9, 60 min): 1/105%
% of Prodrug Remaining ([6]; s9, 60 min): 1/105%
% of Baclofen Released [7]: 15/85%
% of Prodrug Remaining [7]: 15/85%
